Numbers after ± are expanded uncertainties.
Test: excess molar enthalpy (molar enthalpy of mixing); xn = mol fraction of the nth substance listed
Conditions: 303.15 K, 101 kPa, Liquid, Flow calorimetry

O=CO [formic acid] + C1COCCO1
Conditions | excess molar enthalpy [kcal/mol]
x2 = 0.056 | -0.0504 ± 0.00215
x2 = 0.114 | -0.096 ± 0.00406
x2 = 0.225 | -0.194 ± 0.00789
x2 = 0.301 | -0.275 ± 0.0112
x2 = 0.383 | -0.35 ± 0.0143
x2 = 0.472 | -0.401 ± 0.0163
x2 = 0.58 | -0.418 ± 0.017
x2 = 0.705 | -0.354 ± 0.0143
x2 = 0.762 | -0.274 ± 0.0112
x2 = 0.836 | -0.182 ± 0.00741
x2 = 0.917 | -0.0574 ± 0.00239
